In the supplement of paper PMC10307832:

Legend:
Test in all cases: relative viability (nuclei count vs DMSO), 5 days (fraction); higher = more cells survive
[1] = compound: Cc1cnc(CNC(=O)c2c(=O)c3ccc(N4CCCN(C)CC4)nc3n3c2sc2ccccc23)cn1 [CX-5461]
In short: (§1)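 Vehicle-anchored 1536-well plates of lung cancer cell lines, held overnight at 37 °C, were pinned with five library-drug doses (not always all listed) spaced by √10. No medium change followed over the next 5 days, after which the cells were fixed, permeabilised and Hoechst-stained together and imaged at 4×. Nuclei were counted with MetaXpress, and viability is treated-well nuclei over vehicle-well nuclei, taken as a median across plates. Plates passed with control CV below 25% and at least one doubling.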

[2] = compound: O=C(Nc1cc(C(F)(F)F)cc(C(F)(F)F)c1)c1cc(Cl)ccc1O [IMD-0354]
In short: as §1

[3] = compound: O=C(Nc1cc(C(F)(F)F)cc(C(F)(F)F)c1)c1cc(Cl)ccc1O [IMD-0354] + Nc1nc2[nH]cc(CCc3ccc(C(=O)N[C@@H](CCC(=O)O)C(=O)O)cc3)c2c(=O)[nH]1 [Pemetrexed] (partner 0.2 µM)
In short: (§2)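 Lung cancer cell lines were pin-tool dosed in 1536-well plates on the day after seeding, with either a lone drug or a fixed anchor-drug dose plus five library-drug doses (not always all listed) in √10 steps. Nuclei were counted on 4× images after 5 days. Relative viability is the ratio of treated-well to vehicle-well nuclei counts, with each value a median of duplicate plates.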

[4] = compound: Cc1cnc(CNC(=O)c2c(=O)c3ccc(N4CCCN(C)CC4)nc3n3c2sc2ccccc23)cn1 [CX-5461] + Cc1nc(NC(=O)N2CCC[C@H]2C(N)=O)sc1-c1ccnc(C(C)(C)C(F)(F)F)c1 [Alpelisib] (partner 2 µM)
In short: as §2

Cell Line | relative viability ([1]; 0.01 µM) | relative viability ([1]; 0.03162 µM) | relative viability ([1]; 0.1 µM) | relative viability ([1]; 0.3162 µM) | relative viability ([1]; 1 µM) | relative viability ([2]; 0.04 µM) | relative viability ([2]; 0.1265 µM) | relative viability ([2]; 0.4 µM) | relative viability ([2]; 1.265 µM) | relative viability ([2]; 4 µM) | relative viability ([3]; first compound 0.04 µM) | relative viability ([3]; first compound 0.1265 µM) | relative viability ([3]; first compound 0.4 µM) | relative viability ([3]; first compound 1.265 µM) | relative viability ([3]; first compound 4 µM) | relative viability ([4]; first compound 0.01 µM) | relative viability ([4]; first compound 0.03162 µM) | relative viability ([4]; first compound 0.1 µM) | relative viability ([4]; first compound 0.3162 µM) | relative viability ([4]; first compound 1 µM)
LCLC-103H | 1.02 | 1.05 | 0.969 | 0.944 | 0.969 | 1.02 | 1.01 | 0.653 | 0.457 | 0.331 | 0.518 | 0.491 | 0.446 | 0.317 | 0.266 | 1.04 | 0.925 | 0.985 | 1.03 | 0.921
LK-2 | 0.89 | 1.07 | 1.13 |  | 0.783 | 1.19 | 0.986 |  | 1 | 0.271 | 0.284 | 0.31 |  | 0.172 | 0.111 |  | 1.22 | 1.37 |  | 0.864
LOU-NH91 | 1.07 | 1.01 | 0.997 | 0.574 | 0.845 | 1.1 | 1 | 0.353 | 0.252 | 0.273 | 0.359 | 0.472 | 0.25 | 0.206 | 0.304 | 0.812 | 0.739 | 0.703 | 0.677 | 0.64
LU99A | 0.974 | 0.95 | 1.23 | 0.603 | 0.356 | 0.726 | 0.95 | 0.788 | 0.326 | 0.236 | 0.194 | 0.201 | 0.143 | 0.188 | 0.149 | 0.536 | 0.544 | 0.527 | 0.364 | 0.413
LXF-289 | 0.988 | 1.01 | 1.06 | 0.87 | 0.745 | 1.02 | 1.05 | 0.86 | 0.337 | 0.207 | 0.898 | 0.884 | 0.868 | 0.26 | 0.129 | 1.03 | 1.07 | 1.06 | 0.916 | 1.02
NCI-H23 | 1.05 | 1.04 | 0.856 | 0.773 | 0.544 | 1.14 | 0.942 | 0.518 | 0.195 | 0.2 | 0.78 | 0.693 | 0.324 | 0.18 | 0.235 | 0.616 | 0.865 | 0.717 | 0.689 | 0.586
NCI-H322M | 0.923 | 0.987 | 1.03 | 0.491 | 0.731 | 0.992 | 1.09 | 0.805 | 0.406 | 0.331 | 0.673 | 0.65 | 0.543 | 0.332 | 0.422 | 0.813 | 0.938 | 0.846 |  | 0.807
NCI-H358 | 0.971 | 1.02 | 0.872 | 0.871 | 0.633 | 1.01 | 1 | 0.557 | 0.232 | 0.274 | 0.174 | 0.172 | 0.175 | 0.138 | 0.126 | 0.997 | 0.883 | 0.413 | 0.593 | 0.27
NCI-H441 | 1.08 | 1.17 | 0.947 | 0.888 | 0.689 | 1.13 | 0.966 | 0.521 | 0.227 | 0.243 | 0.255 | 0.251 | 0.289 | 0.177 | 0.147 | 0.76 | 0.876 | 0.694 | 0.727 | 0.438
NCI-H460 | 1.05 | 0.97 | 0.725 | 0.93 | 0.128 | 1.02 | 1.01 | 0.379 | 0.106 | 0.0241 | 0.0638 | 0.0692 | 0.0923 | 0.0741 | 0.0289 | 0.484 | 0.489 | 0.0913 | 0.402 | 0.0154
NCI-H520 | 1.14 | 1.02 | 1.09 | 0.666 | 0.578 | 1.05 | 0.93 | 0.545 | 0.589 | 0.226 | 0.668 | 0.838 | 0.392 | 0.149 | 0.139 | 0.841 | 0.945 | 0.856 | 0.712 | 0.619
NCI-H596 | 0.989 | 1.15 | 0.968 | 1.09 | 0.683 | 0.989 | 1.16 | 0.799 | 0.834 | 0.426 | 0.546 | 0.526 | 0.344 | 0.461 | 0.396 | 0.509 | 0.494 | 0.52 | 0.524 | 0.441
NCI-H647 | 1.08 | 0.935 | 0.991 | 0.822 | 0.403 | 1.04 | 1.06 | 0.405 | 0.172 | 0.11 | 0.182 | 0.148 | 0.185 | 0.111 | 0.0986 | 1.29 | 1.22 | 1.06 | 1.27 | 0.211
NCI-H650 | 0.919 | 1.02 | 0.788 | 0.879 | 0.768 | 1.13 | 0.954 | 0.594 | 0.555 | 0.214 | 1.05 | 0.97 | 0.793 | 0.436 | 0.169 | 1.1 | 1.16 | 1.18 | 1.16 | 0.977
NCI-H661 | 1.04 | 0.978 | 1.02 | 0.626 | 0.835 | 0.999 | 0.955 | 0.646 | 0.291 | 0.305 | 0.955 | 0.921 | 0.484 | 0.331 | 0.207 | 0.805 | 0.674 | 0.876 |  | 0.588
NCI-H838 | 0.983 | 1 | 0.992 | 0.78 | 0.806 | 0.977 | 0.954 | 0.565 | 0.432 | 0.27 | 0.25 | 0.229 | 0.161 | 0.191 | 0.167 | 1 | 1.05 | 1.06 | 0.709 | 0.896
